Reference: patent publication US8338599B2, “Compounds having a potentiating effect on the activity of ethionamide and uses thereof” (priority 2006, dated 2012)
Converted amounts (≈) assume the structure as drawn.

Assays:
EthR protein [1] = biological target: T1, EthR protein (Mycobacterium tuberculosis, UniProt P9WMC1); experiment: Inhibition of interaction of EthR with its target DNA sequence (BIAcore); assay type: binding, M. tuberculosis H37Rv; conditions: compound 3 μM, EthR 540 nM, 37° C.
Procedure: a) Measurement of the Activity of the Compounds on the Inhibition of Interaction of EthR with its Target DNA Sequence
The in vitro measurements of inhibition of binding of the EthR protein to its target DNA sequence were performed on a machine of BIAcore®2000 type (AB, Uppsala, Sweden).
The chips used are CM5 chips sold by the company GE Healthcare. Both the channels of a chip were activated with a solution containing 200 mM of EDC(N-ethyl-N′-(3-[…])carbodiimide) and 50 mM of NHS (N-hydroxysuccinimide). Next, streptavidin (500 ng/μl in a solution containing 10 mM of sodium acetate (pH 3.5) was injected over 12 minutes at a flow rate of 10 μl/minute. The 106-base-pair biotinylated DNA fragment corresponding to the ethA-R intergene region was deposited on one of the two channels of the chip at a rate of 200 ng/ml in order to obtain stable binding of streptavidin corresponding to 50 RU (resonance units). This DNA fragment was obtained by PCR using the chromosomal DNA of M. tuberculosis H37Rv as matrix and O-270: 5′-[…]-3′ (SEQ ID: No. 1) and O-271: 5′-biotin-[…]-3′ (SEQ ID: No. 2). The second channel was functionalized with a 113-base-pair biotinylated DNA fragment (fragment +14 to +127 of the bla gene of E. coli PCR-amplified using the following oligonucleotides: O-343: 5′-[…]-3′ (SEQ ID: No. 3) and O-344: 5′-biotin-[…]-3′ (SEQ ID: No. 4).
Measurement of the binding of the EthR protein to the immobilized DNA was performed at 37° C. in a reference buffer containing 10 mM of Tris-HCl (pH=7.5), 200 mM of NaCl, 0.1 mM of EDTA, 1 mM of DTT and 1% of DMSO at a flow rate of 20 μl/minute. The specific interaction (SI) of EthR with the 106-base-pair double-stranded DNA sequence, expressed in resonance units, corresponds to the difference in signal observed between the two channels.
For each inhibition measurement, the compounds of the invention are dissolved in the reference buffer at a concentration of 3 μM. The compounds of the invention are then incubated in the presence of the protein (540 nM) at 37° C. for 5 minutes, and each solution is then injected onto the two channels of the chip for 3 minutes at a flow rate of 20 μl/minute. The inhibition values are calculated at the end of the injection according to the following equation: […]
in which SIEthR corresponds to the value measured without ligand and SIEthR+ligand corresponds to the value measured in the presence of to ligand.

[2] = Measurement of the solubility (PBS pH 7.4 vs methanol, LC/MS); assay type: physicochemical; conditions: pH 7.4, aqueous buffer, kinetic from dmso stock
Procedure: e) Measurement of the Solubility of the Compounds of the Invention
40 μl of a solution containing a compound of the invention at a concentration of 10 mM in DMSO were diluted in 1.960 ml of methanol, and another 40 μl were diluted in 1.960 ml of a PBS solution containing 675 mM of NaCl, 13.5 mM of KCl, 50 mM of Na2HPO4.2H2O and 10 mM of KH2PO4 at a pH of 7.4. The two solutions were stirred for 24 hours at room temperature, and then centrifuged for 5 minutes and filtered through 0.45 μm filters. 20 μl of each solution were then diluted in 118 μl of methanol and analyzed by liquid chromatography coupled to mass spectrometry (LC/MS). The solubility was determined by the ratio of the areas under the curve of the mass signal for the compound of the invention, according to the following equation: […]

EthR protein [3] = biological target: T1, EthR protein; experiment: In vitro measurement of the IC50 (EthR/DNA binding, BIAcore); design: species or system M. tuberculosis H37Rv
Procedure: b) In Vitro Measurement of the IC50 of the Compounds of the Invention.
The in vitro measurement of this datum was performed according to the same principle as for the measurement of inhibition of the EthR/DNA binding using the BIAcore technique.
The specific interaction between EthR and the specific 106-bp DNA fragment was measured on a range of six concentrations of the compounds of the invention, this range extending from 0.11 μM to 27 μM. The IC50 values are then extrapolated from the sigmoid curves obtained.

M. tuberculosis H37Rv = experiment: Ethionamide-potentiating effect, fluorimetric detection on Bactec MGIT 960; assay type: cell-based; conditions: compound 25 μM
M. bovis BCG = assay type: cell-based, M. bovis BCG 1173P2; conditions: from MIC of ETH alone (6 μM) and MIC of ETH with 25 μM compound

T1 sequence (P9WMC1 whole entry, looked up): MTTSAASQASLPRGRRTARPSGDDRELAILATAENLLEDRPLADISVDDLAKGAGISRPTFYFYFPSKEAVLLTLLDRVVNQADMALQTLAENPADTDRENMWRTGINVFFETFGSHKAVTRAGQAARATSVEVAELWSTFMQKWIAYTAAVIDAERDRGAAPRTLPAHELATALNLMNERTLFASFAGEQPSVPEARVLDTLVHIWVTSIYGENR

| SMILES | inhibition at 3 µM (EthR protein [1]) [%] | solubility at 24 h [2] [µg/mL] | IC50 (EthR protein [3]) [nM] | potentiation of the ethionamide activity (factor) (M. tuberculosis H37Rv) | Potentiation % (M. bovis BCG) [%] | potentiation of the ethionamide activity (factor) (M. tuberculosis H37Rv; listed as compound 22) |
| --- | --- | --- | --- | --- | --- | --- |
| C=CCCC(=O)N1CCC(c2nc(-c3cccs3)no2)CC1 [Compound 20, 1-[4-(3-thiophen-2-yl[1,2,4]oxadiazol-5-yl)piperid-1-yl]pent-4-en-1-one] | 53 | 63.5 (≈ 200 µM) | 1000 | about 20 fold | 2500 |  |
| N#CCC(=O)N1CCC(c2nc(-c3cccs3)no2)CC1 [Compound 22, 3-oxo-3-[4-(3-thiophen-2-yl[1,2,4]oxadiazol-5-yl)piperid-1-yl]propionitrile] | 28 | 60.4 (≈ 200 µM) | 3330 | ~10 fold | 2500 | about 10 fold |
